Test results: patent EP0745599A2, “1-(3-Heterocyclylphenyl)-s-triazine-2,4,6-oxo or thiotrione herbicidal agents” (American Cyanamid Company, priority 1995, dated 1996)

How the values were obtained:
Type in all cases: in vivo
Settings in all cases: rated four to five weeks after treatment
[1] = tested on: ABUTILON THEOPHRASTI, MEDIC.; assay: Postemergence herbicidal evaluation, ABUTH (Velvetleaf)
Experimental: (§1) In the tests, seedling plants are grown in jiffy flats for about two weeks. The test compounds are dispersed in 50/50 acetone/water mixtures containing 0.5% TWEEN®20, a polyoxyethylene sorbitan monolaurate surfactant of Atlas Chemical Industries, in sufficient quantities to provide the equivalent of about 0.125 kg to 0.500 kg per hectare of active compound when applied to the plants through a spray nozzle operating at 40 psi for a predetermined time. After spraying, the plants are placed on greenhouse benches and are cared for in the usual manner, commensurate with conventional greenhouse practices. From four to five weeks after treatment, the seedling plants are examined and rated according to the rating system set forth below. Where more than one test is involved for a given compound, the data are averaged.
(§2) Results of herbicide evaluation are expressed on a rating scale (0-9). The scale is based upon a visual observation of plant stand, vigor, malformation, size, chlorosis and overall plant appearance as compared with a control.

[2] = tested on: ORYZA SATIVA, L. TEBONNET; assay: Postemergence herbicidal evaluation, ORYSAT (Rice, Tebonnet)
Experimental: as §1, §2

[3] = tested on: ZEA MAYS L.; assay: Postemergence herbicidal evaluation, ZEAMX (Corn, Field)
Experimental: as §1, §2

[4] = tested on: CHENOPODIUM ALBUM, L.; assay: Preemergence herbicidal evaluation, CHEAL (Lambsquarters, Common)
Outline: (§3)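 Seeds mixed with potting soil were planted over about one inch of soil, then sprayed with aqueous acetone solution of test compound at about 0.125 to 0.50 kg per hectare. Cups were kept under standard greenhouse care, and plants were rated visually on a 0-9 scale versus control after four to five weeks.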

[5] = tested on: GALIUM APARINE; assay: Preemergence herbicidal evaluation, GALAP (Galium)
Outline: as §3

[6] = tested on: ECHINOCHLOA CRUS-GALLI, (L) BEAU; assay: Preemergence herbicidal evaluation, ECHCG (Barnyardgrass)
Outline: as §3

[7] = tested on: GLYCINE MAX(L)MERR. CV. WILLIAMS; assay: Preemergence herbicidal evaluation, GLXMAW (Soybean, Williams)
Outline: as §3

[8] = tested on: CASSIA OBTUSIFOLIA, L.; assay: Postemergence herbicidal evaluation, CASOB (Sicklepod)
Experimental: as §1, §2

[9] = tested on: ECHINOCHLOA CRUS-GALLI, (L) BEAU; assay: Postemergence herbicidal evaluation, ECHCG (Barnyardgrass)
Outline: (§4)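 Greenhouse postemergence test: two-week seedlings, 40 psi spray of 0.125–0.500 kg/ha active in acetone/water with surfactant. Scored visually 0–9 at 4–5 weeks.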

[10] = tested on: SETARIA VIRIDIS, (L) BEAU; assay: Postemergence herbicidal evaluation, SETVI (Foxtail, Green)
Outline: as §4

[11] = tested on: TRITICUM AESTIVUM, CV. APOLLO; assay: Postemergence herbicidal evaluation, TRZAWO (Wheat, Winter, CV. APOLLO)
Experimental: as §1, §2

[12] = tested on: ABUTILON THEOPHRASTI, MEDIC.; assay: Preemergence herbicidal evaluation, ABUTH (Velvetleaf)
Outline: as §3

[13] = tested on: AMBROSIA ARTEMISIIFOLIA, L.; assay: Preemergence herbicidal evaluation, AMBEL (Ragweed, Common)
Outline: as §3

[14] = tested on: CASSIA OBTUSIFOLIA, L.; assay: Preemergence herbicidal evaluation, CASOB (Sicklepod)
Outline: as §3

[15] = tested on: IPOMOEA SPP.; assay: Preemergence herbicidal evaluation, IPOSS (Morningglory Spp.)
Outline: as §3

[16] = tested on: SETARIA VIRIDIS, (L) BEAU; assay: Preemergence herbicidal evaluation, SETVI (Foxtail, Green)
Outline: as §3

[17] = tested on: ORYZA SATIVA, L. TEBONNET; assay: Preemergence herbicidal evaluation, ORYSAT (Rice, Tebonnet)
Outline: as §3

[18] = tested on: TRITICUM AESTIVUM, CV. APOLLO; assay: Preemergence herbicidal evaluation, TRZAWO (Wheat, Winter, CV. APOLLO)
Outline: as §3

[19] = tested on: ZEA MAYS L.; assay: Preemergence herbicidal evaluation, ZEAMX (Corn, Field)
Outline: as §3

Structure (SMILES): CC(C)OC(=O)Cn1c(=O)n(C)c(=O)n(-c2cc(N3C(=O)C4=C(CCCC4)C3=O)c(F)cc2Cl)c1=O [Compound 4, Isopropyl 3-[2-chloro-5-(1-cyclohexene-1,2-dicarboximido)-4-fluorophenyl]tetrahydro-5-methyl-2,4,6-trioxo-s-triazine-1(2H)-acetate]
- Herbicide rating (0-9) ABUTH ([1]; 0.125 kg/ha): 9.0
- Herbicide rating (0-9) ABUTH ([1]; 0.250 kg/ha): 9.0
- Herbicide rating (0-9) ABUTH ([1]; 0.500 kg/ha): 9.0
- Herbicide rating (0-9) ORYSAT ([2]; 0.125 kg/ha): 4.0
- Herbicide rating (0-9) ORYSAT ([2]; 0.250 kg/ha): 4.0
- Herbicide rating (0-9) ORYSAT ([2]; 0.500 kg/ha): 4.0
- Herbicide rating (0-9) ZEAMX ([3]; 0.125 kg/ha): 4.5
- Herbicide rating (0-9) ZEAMX ([3]; 0.250 kg/ha): 4.5
- Herbicide rating (0-9) ZEAMX ([3]; 0.500 kg/ha): 4.5
- Herbicide rating (0-9) CHEAL ([4]; 0.125 kg/ha): 9.0
- Herbicide rating (0-9) CHEAL ([4]; 0.250 kg/ha): 9.0
- Herbicide rating (0-9) CHEAL ([4]; 0.500 kg/ha): 9.0
- Herbicide rating (0-9) GALAP ([5]; 0.125 kg/ha): 9.0
- Herbicide rating (0-9) GALAP ([5]; 0.250 kg/ha): 9.0
- Herbicide rating (0-9) GALAP ([5]; 0.500 kg/ha): 9.0
- Herbicide rating (0-9) ECHCG ([6]; 0.125 kg/ha): 0.0
- Herbicide rating (0-9) ECHCG ([6]; 0.250 kg/ha): 0.0
- Herbicide rating (0-9) ECHCG ([6]; 0.500 kg/ha): 0.0
- Herbicide rating (0-9) GLXMAW ([7]; 0.125 kg/ha): 0.0
- Herbicide rating (0-9) GLXMAW ([7]; 0.250 kg/ha): 0.0
- Herbicide rating (0-9) GLXMAW ([7]; 0.500 kg/ha): 0.0

Structure (SMILES): CCOC(=O)Cn1c(=O)n(CC(=O)OC(C)(C)C)c(=O)n(-c2ccc(F)c(N3C(=O)C4=C(CCCC4)C3=O)c2)c1=O [Compound 8, 5-[3-(1-Cyclohexene-1,2-dicarboximido)-4-fluorophenyl]dihydro-2,4,6-trioxo-s-tri-azine-1,3(2H,4H)-diacetic acid, 1-tert-butyl, ethyl ester]
- Herbicide rating (0-9) CASOB ([8]; 0.125 kg/ha): 0.0
- Herbicide rating (0-9) CASOB ([8]; 0.250 kg/ha): 0.0
- Herbicide rating (0-9) CASOB ([8]; 0.500 kg/ha): 0.0
- Herbicide rating (0-9) ECHCG ([9]; 0.125 kg/ha): 0.0
- Herbicide rating (0-9) ECHCG ([9]; 0.250 kg/ha): 0.0
- Herbicide rating (0-9) ECHCG ([9]; 0.500 kg/ha): 0.0
- Herbicide rating (0-9) SETVI ([10]; 0.125 kg/ha): 0.0
- Herbicide rating (0-9) SETVI ([10]; 0.250 kg/ha): 0.0
- Herbicide rating (0-9) SETVI ([10]; 0.500 kg/ha): 0.0
- Herbicide rating (0-9) ORYSAT ([2]; 0.125 kg/ha): 1.5
- Herbicide rating (0-9) ORYSAT ([2]; 0.250 kg/ha): 1.5
- Herbicide rating (0-9) ORYSAT ([2]; 0.500 kg/ha): 1.5
- Herbicide rating (0-9) TRZAWO ([11]; 0.125 kg/ha): 0.5
- Herbicide rating (0-9) TRZAWO ([11]; 0.250 kg/ha): 0.5
- Herbicide rating (0-9) TRZAWO ([11]; 0.500 kg/ha): 0.5
- Herbicide rating (0-9) ABUTH ([12]; 0.125 kg/ha): 0.0
- Herbicide rating (0-9) ABUTH ([12]; 0.250 kg/ha): 0.0
- Herbicide rating (0-9) ABUTH ([12]; 0.500 kg/ha): 0.0
- Herbicide rating (0-9) AMBEL ([13]; 0.125 kg/ha): 0.0
- Herbicide rating (0-9) AMBEL ([13]; 0.250 kg/ha): 0.0
- Herbicide rating (0-9) AMBEL ([13]; 0.500 kg/ha): 0.0
- Herbicide rating (0-9) CASOB ([14]; 0.125 kg/ha): 0.0
- Herbicide rating (0-9) CASOB ([14]; 0.250 kg/ha): 0.0
- Herbicide rating (0-9) CASOB ([14]; 0.500 kg/ha): 0.0
- Herbicide rating (0-9) CHEAL ([4]; 0.125 kg/ha): 0.0
- Herbicide rating (0-9) CHEAL ([4]; 0.250 kg/ha): 0.0
- Herbicide rating (0-9) CHEAL ([4]; 0.500 kg/ha): 0.0
- Herbicide rating (0-9) IPOSS ([15]; 0.125 kg/ha): 0.0
- Herbicide rating (0-9) IPOSS ([15]; 0.250 kg/ha): 0.0
- Herbicide rating (0-9) IPOSS ([15]; 0.500 kg/ha): 0.0
- Herbicide rating (0-9) GALAP ([5]; 0.125 kg/ha): 0.0
- Herbicide rating (0-9) GALAP ([5]; 0.250 kg/ha): 0.0
- Herbicide rating (0-9) GALAP ([5]; 0.500 kg/ha): 0.0
- Herbicide rating (0-9) ECHCG ([6]; 0.125 kg/ha): 0.0
- Herbicide rating (0-9) ECHCG ([6]; 0.250 kg/ha): 0.0
- Herbicide rating (0-9) ECHCG ([6]; 0.500 kg/ha): 0.0
- Herbicide rating (0-9) SETVI ([16]; 0.125 kg/ha): 0.0
- Herbicide rating (0-9) SETVI ([16]; 0.250 kg/ha): 0.0
- Herbicide rating (0-9) SETVI ([16]; 0.500 kg/ha): 0.0
- Herbicide rating (0-9) GLXMAW ([7]; 0.125 kg/ha): 0.0
- Herbicide rating (0-9) GLXMAW ([7]; 0.250 kg/ha): 0.0
- Herbicide rating (0-9) GLXMAW ([7]; 0.500 kg/ha): 0.0
- Herbicide rating (0-9) ORYSAT ([17]; 0.125 kg/ha): 0.0
- Herbicide rating (0-9) ORYSAT ([17]; 0.250 kg/ha): 0.0
- Herbicide rating (0-9) ORYSAT ([17]; 0.500 kg/ha): 0.0
- Herbicide rating (0-9) TRZAWO ([18]; 0.125 kg/ha): 0.0
- Herbicide rating (0-9) TRZAWO ([18]; 0.250 kg/ha): 0.0
- Herbicide rating (0-9) TRZAWO ([18]; 0.500 kg/ha): 0.0
- Herbicide rating (0-9) ZEAMX ([19]; 0.125 kg/ha): 0.0
- Herbicide rating (0-9) ZEAMX ([19]; 0.250 kg/ha): 0.0
- Herbicide rating (0-9) ZEAMX ([19]; 0.500 kg/ha): 0.0
